Residues, ends and D or L forms follow the SMILES beside them. *: point of attachment. Cbz = O=C(OCc1ccccc1)*; OtBu = CC(C)(C)O*
Tested on: Na+ currents in hIPSC-derived sensory neurons (RealDRG)
Experiment: Whole-cell voltage clamp, hIPSC-derived sensory neurons (RealDRG) with Nav1.8 blocker A-803467
Assay type: cell-based, human
Details: for Long-term inactivation, 2nd Pulse / Long-term inactivation, 3rd Pulse / Long-term inactivation, 4th Pulse / Activation / Peak Density / Steady-State inactivation / Tau (τ): RealDRG
Protocol: Next, we conducted whole-cell patch-clamp electrophysiological recordings in hIPSC-derived sensory neurons under three conditions: unstimulated and treated with 0.07% ethanol (capsaicin vehicle), treated with capsaicin (100 nM, 10 minutes), and treated with capsaicin plus SB-366791 (10 μM), a selective TRPV1 inhibitor. Each group was exposed to either vehicle (0.01% DMSO) or PW164 (50 μM), with all recordings performed in the presence of the Nav1.8 blocker A-803467 (300 nM) ([41]). The experimental groups are color coded in Figure 2A. Capsaicin caused potentiation of INa (Figure 2A) and induced hyperpolarizing shifts in the V1/2 of activation (Figure 2B) and SSI (Figure 2C). […] Next, we investigated whether silencing FGF13 could replicate PW164’s effects and prevent additional activity of the compound. hIPSC-derived sensory neurons were transfected with a previously validated pAAV-shFGF13-GFP construct ([42]) (Supplemental Figure 8). […] Neither PW164 nor FGF13 silencing affected Na+ currents in neurons transfected with pAAV-shCTRL-GFP or pAAV-shFGF13-GFP, whether unstimulated or treated with capsaicin in the presence of ProTx II (Supplemental Figure 9 and Supplemental Table 6). Thus, PW164 selectively modulated FGF13-dependent Na^+ current sensitization via TRPV1, with FGF13 silencing mimicking and validating PW164’s effect. […]
Whole-cell patch clamp electrophysiology
HEK293-Nav1.7 cells, HEK293 stably expressing human Nav1.6 (HEK-Nav1.6), HEK293 stably expressing human Nav1.5 (HEK-Nav1.5), human hIPSC-derived sensory neurons (RealDRGTM from Anatomic Incorporated 1020F1-1M) and donor-derived DRG neurons were plated at low density on glass coverslips and processed for whole-cell patch clamp electrophysiology in voltage-clamp and/or current clamp mode. Whole-cell patch electrophysiological experiments were conducted following previously published studies (26). Current densities were obtained by dividing INa amplitude by membrane capacitance. Current –voltage relationships were generated by plotting current density as a function of the […]. Conductance (G Na) was calculated by the […]
where INa is the current amplitude at voltage Vm, and Erev is the Na+ reversal potential.
Activation curves were derived by plotting normalized GNa as a function of test potential and fitted using […]
Where GNa,Max is the maximum conductance, Va is the membrane potential of half-maximal activation, Em is the membrane voltage and k is the slope factor. For steady -state inactivation, normalized current amplitude (INa/INa,Max) at the test potential was plotted as a function of prepulse potential (Vm) and fitted using the […]
Where Vh is the potential of half-maximal inactivation, E m is the membrane voltage, and k is the slope factor.
Transient INa inactivation decay was estimated with the standard exponential equation. Inactivation time constant (tau, τ) was fitted with the following equation: […]
where I(t) is the amplitude of the current at time t and Iss is the steady-state current during a single voltage-step.
The goodness of fitting was determined by correlation coefficient (R), and the cutoff of R was set at 0.85. To observe effects on long-term inactivation (LTI), a four-step protocol was employed during which cells were subjected to four 0 mV, 20 ms depolarization pulses separated by −90 mV, 40 ms recovery intervals. To control for various cell sizes, the current densities were calculated by dividing INa peak current amplitude/membrane capacitance (Cm). To represent the fraction of channels entering into LTI, the peak INa observed during depolarization cycles 2-4 was normalized to the peak INa observed during depolarization cycle 1 (INa/INa,Cycle 1) and plotted as a function of the depolarization cycle.
The cumulative (frequency-dependent) use-dependency was determined by applying 20 pulses with a depolarization to −10 mV (50 ms duration) and 50 ms recovery intervals with a train of 20 pulses at 10 Hz from a holding potential at -70 mV. […]

[1] = + A-803467, AAV-FGF13 + PW164, no capsaicin
[2] = + A-803467, Cap + Control + PW164
[3] = + A-803467, Cap+ AAV-FGF13 PW164
[4] = + A-803467, Cap+ ShFGF13 + PW164
[5] = + A-803467, Cap- Control (pAAV-shCTRL-GFP) + PW164
[6] = + A-803467, Cap- Control + PW164
[7] = + A-803467, Cap- ShFGF13 + PW164
[8] = + Nav1.8 blocker A-803467, Cap+ - PW164
[9] = + Nav1.8 blocker A-803467, Cap+ PW164
[10] = + Nav1.8 blocker A-803467, Cap+ SB-366791 - PW164
[11] = + Nav1.8 blocker A-803467, Cap+ SB-366791 PW164
[12] = + Nav1.8 blocker A-803467, Naïve + PW164
[13] = + Nav1.8 blocker A-803467, Naïve - PW164

## COC(=O)[C@@H](NC(=O)[C@H](CCC(=O)OC(C)(C)C)NC(=O)[C@H](CC(C)C)NC(=O)[C@@H]1CCCN1C(=O)OCc1ccccc1)C(C)C [PW164] (Cbz-PLE(OtBu)V-OMe)
PW164 50 μM, 30–60 minutes, capsaicin 100 nM, except LTI
  effect on capsaicin-induced Na+ current phenotypes: reversed capsaicin-induced phenotypes
PW164 50 μM, unstimulated control, or SB-366791, or ProTx II
  effect on Na+ currents without sensitization: no significant alterations
+ A-803467, AAV FGF13 + PW64
  Long-term inactivation, 2nd Pulse: −68.4 ± 7.1 % maximal Na+ current
  Long-term inactivation, 3rd Pulse: −61.9 ± 7.5 % maximal Na+ current
  Long-term inactivation, 4th Pulse: −58.5 ± 8.3 % maximal Na+ current
[1]
  Activation: −24.3 ± 0.8 mV
  Peak Density: −114.3 ± 5.6 pA/pF
  Steady-State inactivation: −75.65 ± 1.6 mV
  Tau (τ): 1.65 ± 0.14 ms
[2]
  Activation: −21.92 ± 0.87 mV
  Long-term inactivation, 2nd Pulse: −59.86 ± 2.37 % maximal Na+ current
  Long-term inactivation, 3rd Pulse: −49.84 ± 2.93 % maximal Na+ current
  Long-term inactivation, 4th Pulse: −46.98 ± 3.3 % maximal Na+ current
  Peak Density: −92.79 ± 7.96 pA/pF
  Steady-State inactivation: −58.11 ± 1.04 mV
  Tau (τ): 1.42 ± 0.09 ms
[3]
  Activation: −27.8 ± 0.81 mV
  Peak Density: −91.7 ± 10.3 pA/pF
  Steady-State inactivation: −73.36 ± 1.4 mV
  Tau (τ): 1.63 ± 0.22 ms
+ A-803467, Cap+ AAV-GFP PW164
  Activation: −28.39 ± 0.59 mV
  Peak Density: −87.62 ± 9.5 pA/pF
  Steady-State inactivation: −75.15 ± 1.69 mV
  Tau (τ): 2.0 ± 0.32 ms
+ A-803467, Cap+ GFP PW164
  Long-term inactivation, 2nd Pulse: −53.56 ± 4.9 % maximal Na+ current
  Long-term inactivation, 3rd Pulse: −54.96 ± 3.6 % maximal Na+ current
  Long-term inactivation, 4th Pulse: −54.22 ± 4.3 % maximal Na+ current
[4]
  Activation: −32.72 ± 1.59 mV
  Long-term inactivation, 2nd Pulse: −74.3 ± 3.96 % maximal Na+ current
  Long-term inactivation, 3rd Pulse: −68.4 ± 5.4 % maximal Na+ current
  Long-term inactivation, 4th Pulse: −67.2 ± 5.2 % maximal Na+ current
  Peak Density: −76.49 ± 4.86 pA/pF
  Steady-State inactivation: −67.68 ± 1.53 mV
  Tau (τ): 1.38 ± 0.10 ms
+ A-803467, Cap+ hFGF13 PW164
  Long-term inactivation, 2nd Pulse: −55.4 ± 2.7 % maximal Na+ current
  Long-term inactivation, 3rd Pulse: −52.0 ± 3.7 % maximal Na+ current
  Long-term inactivation, 4th Pulse: −45.4 ± 3.1 % maximal Na+ current
[5]
  Activation: −25.74 ± 1.14 mV
  Peak Density: −111.31 ± 11.73 pA/pF
  Steady-State inactivation: −60.96±1.53 mV
  Tau (τ): 1.18 ± 0.09 ms
[6]
  Long-term inactivation, 2nd Pulse: −86.72 ± 2.2 % maximal Na+ current
  Long-term inactivation, 3rd Pulse: −82.89 ± 3.3 % maximal Na+ current
  Long-term inactivation, 4th Pulse: −81.6 ± 3.6 % maximal Na+ current
[7]
  Activation: −29.77 ± 1.74 mV
  Long-term inactivation, 2nd Pulse: −82.82 ± 2.85 % maximal Na+ current
  Long-term inactivation, 3rd Pulse: −81.52 ± 3.86 % maximal Na+ current
  Long-term inactivation, 4th Pulse: −81.16 ± 4.06 % maximal Na+ current
  Peak Density: −96.02 ± 8.94 pA/pF
  Steady-State inactivation: −64.99 ± 1.30 mV
  Tau (τ): 0.98 ± 0.09 ms
[8]
  Activation: −27.51 ± 1.22 mV
  Peak Density: −71.9 ± 9.4 pA/pF
  Steady-State inactivation: −74.71 ± 1.43 mV
  Tau (τ): 1.39 ± 0.09 ms
[9]
  Long-term inactivation, 2nd Pulse: −45.59 ± 3.33 % maximal Na+ current
  Long-term inactivation, 3rd Pulse: −38.18 ± 2.61 % maximal Na+ current
  Long-term inactivation, 4th Pulse: −32.17 ± 4.29 % maximal Na+ current
[10]
  Activation: −30.7 ± 0.53 mV
  Peak Density: −95.2 ± 9.9 pA/pF
  Steady-State inactivation: −73.56 ± 1.33 mV
  Tau (τ): 1.52 ± 0.11 ms
[11]
  Long-term inactivation, 2nd Pulse: −54.94 ± 3.35 % maximal Na+ current
  Long-term inactivation, 3rd Pulse: −47.15 ± 2.81 % maximal Na+ current
  Long-term inactivation, 4th Pulse: −45.57 ± 4.0 % maximal Na+ current
[12]
  Long-term inactivation, 2nd Pulse: −74.84 ± 5.46 % maximal Na+ current
  Long-term inactivation, 3rd Pulse: −67.02 ± 3.43 % maximal Na+ current
  Long-term inactivation, 4th Pulse: −65.63 ± 4.22 % maximal Na+ current
[13]
  Activation: −30.27 ± 0.75 mV
  Peak Density: −84.1 ± 5.9 pA/pF
  Steady-State inactivation: −75.11 ± 0.78 mV
  Tau (τ): 0.98 ± 0.09 ms
pAAV-FGF13-GFP neurons, PW164 50 μM
  effect on INa potentiation by FGF13 overexpression: fully attenuated
